Laboratory results from patent US20220104493A1, “HERBICIDAL COMPOUNDS” (SYNGENTA CROP PROTECTION AG, priority 2019, published 2022).

Key:
Experiment in all cases: Post-emergence efficacy, Method A
Assay type in all cases: in vivo
[1] = system: Eleusine indica (ELEIN); conditions: 100=total damage to plant, 0=no damage, evaluated after 7 and 14 days, read-out: Control of weed species after post-emergence application, ELEIN
[2] = system: Echinochloa crus-galli (ECHCG); conditions: 100=total damage to plant, 0=no damage, evaluated after 7 and 14 days, read-out: Control of weed species after post-emergence application, ECHCG
[3] = system: Euphorbia heterophylla (EPHHL); conditions: 100=total damage to plant, 0=no damage, evaluated after 7 and 14 days, read-out: Control of weed species after post-emergence application, EPHHL
[4] = system: Digitaria sanguinalis (DIGSA); conditions: 100=total damage to plant, 0=no damage, evaluated after 7 and 14 days, read-out: Control of weed species after post-emergence application, DIGSA
[5] = system: Amaranthus palmeri (AMAPA); conditions: 100=total damage to plant, 0=no damage, evaluated after 7 and 14 days, read-out: Control of weed species after post-emergence application, AMAPA
[6] = system: Chenopodium album (CHEAL); conditions: 100=total damage to plant, 0=no damage, evaluated after 7 and 14 days, read-out: Control of weed species after post-emergence application, CHEAL
[7] = system: Ipomoea hederacea (IPOHE); conditions: 100=total damage to plant, 0=no damage, evaluated after 7 and 14 days, read-out: Control of weed species after post-emergence application, IPOHE
[8] = system: Setaria faberi (SETFA); conditions: 100=total damage to plant, 0=no damage, evaluated after 7 and 14 days, read-out: Control of weed species after post-emergence application, SETFA
[9] = system: Lolium perenne (LOLPE); conditions: 100=total damage to plant, 0=no damage, evaluated after 7 and 14 days, read-out: Control of weed species after post-emergence application, LOLPE

## O=S(=O)([O-])C[n+]1ccc(-c2cnns2)cc1 [Compound A3, [4-(thiadiazol-5-yl)pyridin-1-ium-1-yl]methanesulfonate]
[1]
  pest or weed control at 500 g/ha: 50%
[2]
  pest or weed control at 500 g/ha: 40%
[3]
  pest or weed control at 500 g/ha: 80%
[4]
  pest or weed control at 500 g/ha: 70%
[5]
  pest or weed control at 500 g/ha: 100%
[6]
  pest or weed control at 500 g/ha: 90%
[7]
  pest or weed control at 500 g/ha: 80%
[8]
  pest or weed control at 500 g/ha: 80%
[9]
  pest or weed control at 500 g/ha: 20%

## O=S(=O)([O-])CC[n+]1ccc(-c2ncns2)cc1 [Compound A5, 2-[4-(1,2,4-thiadiazol-5-yl)pyridin-1-ium-1-yl]ethanesulfonate]
[1]
  pest or weed control at 500 g/ha: 80%
[2]
  pest or weed control at 500 g/ha: 40%
[3]
  pest or weed control at 500 g/ha: 100%
[4]
  pest or weed control at 500 g/ha: 70%
[5]
  pest or weed control at 500 g/ha: 100%
[6]
  pest or weed control at 500 g/ha: 90%
[7]
  pest or weed control at 500 g/ha: 70%
[8]
  pest or weed control at 500 g/ha: 60%
[9]
  pest or weed control at 500 g/ha: 70%

## O=C(O)C[n+]1ccc(-c2ncns2)cc1 [Compound A6]
[1]
  pest or weed control at 500 g/ha: 90%
[2]
  pest or weed control at 500 g/ha: 90%
[3]
  pest or weed control at 500 g/ha: 100%
[4]
  pest or weed control at 500 g/ha: 70%
[5]
  pest or weed control at 500 g/ha: 100%
[6]
  pest or weed control at 500 g/ha: 100%
[7]
  pest or weed control at 500 g/ha: 80%
[8]
  pest or weed control at 500 g/ha: 80%
[9]
  pest or weed control at 500 g/ha: 30%

## O=C(O)CC[n+]1ccc(-c2ncns2)cc1 [Compound A7, 3-[4-(1,2,4-thiadiazol-5-yl)pyridin-1-ium-1-yl]propanoic acid chloride]
[1]
  pest or weed control at 500 g/ha: 70%
[2]
  pest or weed control at 500 g/ha: 50%
[3]
  pest or weed control at 500 g/ha: 80%
[4]
  pest or weed control at 500 g/ha: 90%
[5]
  pest or weed control at 500 g/ha: 100%
[6]
  pest or weed control at 500 g/ha: 90%
[7]
  pest or weed control at 500 g/ha: 30%
[8]
  pest or weed control at 500 g/ha: 70%
[9]
  pest or weed control at 500 g/ha: 30%

## COC(=O)C[n+]1ccc(-c2cnns2)cc1 [Compound A8, methyl 2-[4-(thiadiazol-5-yl)pyridin-1-ium-1-yl]acetate bromide]
[1]
  pest or weed control at 500 g/ha: 30%
[2]
  pest or weed control at 500 g/ha: 20%
[3]
  pest or weed control at 500 g/ha: 60%
[4]
  pest or weed control at 500 g/ha: 50%
[6]
  pest or weed control at 500 g/ha: 70%
[7]
  pest or weed control at 500 g/ha: 10%
[8]
  pest or weed control at 500 g/ha: 30%
[9]
  pest or weed control at 500 g/ha: 0%

## O=C(O)C[n+]1ccc(-c2cnns2)cc1 [Compound A9, 2-[4-(thiadiazol-5-yl)pyridin-1-ium-1-yl]acetic acid chloride]
[3]
  pest or weed control at 500 g/ha: 10%
[5]
  pest or weed control at 500 g/ha: 30%
[6]
  pest or weed control at 500 g/ha: 0%
[7]
  pest or weed control at 500 g/ha: 20%
[8]
  pest or weed control at 500 g/ha: 0%
[9]
  pest or weed control at 500 g/ha: 0%

## O=S(=O)([O-])CCC[n+]1ccc(-c2cnsn2)cc1 [Compound A12]
[1]; 1000 g/Ha
  pest or weed control at 1000 g/ha: 20%
[2]; 1000 g/Ha
  pest or weed control at 1000 g/ha: 0%
[3]; 1000 g/Ha
  pest or weed control at 1000 g/ha: 20%
[4]; 1000 g/Ha
  pest or weed control at 1000 g/ha: 20%
[5]; 1000 g/Ha
  pest or weed control at 1000 g/ha: 0%
[6]; 1000 g/Ha
  pest or weed control at 1000 g/ha: 0%
[7]; 1000 g/Ha
  pest or weed control at 1000 g/ha: 0%
[8]; 1000 g/Ha
  pest or weed control at 1000 g/ha: 0%
[9]; 1000 g/Ha
  pest or weed control at 1000 g/ha: 10%

## O=C(O)C[n+]1ccc(-c2ncno2)cc1 [Compound A13]
[1]
  pest or weed control at 500 g/ha: 50%
[2]
  pest or weed control at 500 g/ha: 50%
[3]
  pest or weed control at 500 g/ha: 70%
[4]
  pest or weed control at 500 g/ha: 60%
[5]
  pest or weed control at 500 g/ha: 100%
[6]
  pest or weed control at 500 g/ha: 50%
[7]
  pest or weed control at 500 g/ha: 30%
[8]
  pest or weed control at 500 g/ha: 70%
[9]
  pest or weed control at 500 g/ha: 10%

## O=C(O)CC[n+]1ccc(-c2ncno2)cc1 [Compound A14]
[1]
  pest or weed control at 500 g/ha: 40%
[2]
  pest or weed control at 500 g/ha: 50%
[3]
  pest or weed control at 500 g/ha: 30%
[4]
  pest or weed control at 500 g/ha: 50%
[5]
  pest or weed control at 500 g/ha: 100%
[6]
  pest or weed control at 500 g/ha: 70%
[7]
  pest or weed control at 500 g/ha: 20%
[8]
  pest or weed control at 500 g/ha: 60%
[9]
  pest or weed control at 500 g/ha: 10%

## O=C(O)C[n+]1ccc(-c2nc(C(F)(F)F)cs2)cc1 [Compound A22]
[3]
  pest or weed control at 500 g/ha: 40%
[5]
  pest or weed control at 500 g/ha: 10%
[6]
  pest or weed control at 500 g/ha: 10%
[7]
  pest or weed control at 500 g/ha: 0%
[8]
  pest or weed control at 500 g/ha: 0%
[9]
  pest or weed control at 500 g/ha: 0%

## CC(C(=O)O)[n+]1ccc(-c2ncns2)cc1 (stereo not drawn) [Compound A28]
[3]
  pest or weed control at 500 g/ha: 20%
[5]
  pest or weed control at 500 g/ha: 100%
[6]
  pest or weed control at 500 g/ha: 80%
[7]
  pest or weed control at 500 g/ha: 70%
[8]
  pest or weed control at 500 g/ha: 80%
[9]
  pest or weed control at 500 g/ha: 30%

## Cn1nnc(-c2cc[n+](CS(=O)(=O)[O-])cc2)n1 [Compound A35]
[1]
  pest or weed control at 500 g/ha: 20%
[2]
  pest or weed control at 500 g/ha: 40%
[3]
  pest or weed control at 500 g/ha: 50%
[4]
  pest or weed control at 500 g/ha: 20%
[5]
  pest or weed control at 500 g/ha: 70%
[6]
  pest or weed control at 500 g/ha: 60%
[7]
  pest or weed control at 500 g/ha: 40%
[8]
  pest or weed control at 500 g/ha: 30%

## CNC(=O)c1nc(-c2cc[n+](CCCS(=O)(=O)[O-])cc2)no1 [Compound A51]
[1]
  pest or weed control at 500 g/ha: 10%
[2]
  pest or weed control at 500 g/ha: 30%
[4]
  pest or weed control at 500 g/ha: 50%
[5]
  pest or weed control at 500 g/ha: 10%
[6]
  pest or weed control at 500 g/ha: 60%
[7]
  pest or weed control at 500 g/ha: 10%
[8]
  pest or weed control at 500 g/ha: 30%
[9]
  pest or weed control at 500 g/ha: 20%

## CNC(=O)c1cc(-c2cc[n+](CCCS(=O)(=O)[O-])cc2)on1 [Compound A52]
[1]
  pest or weed control at 500 g/ha: 10%
[2]
  pest or weed control at 500 g/ha: 10%
[4]
  pest or weed control at 500 g/ha: 20%
[5]
  pest or weed control at 500 g/ha: 20%
[6]
  pest or weed control at 500 g/ha: 30%
[7]
  pest or weed control at 500 g/ha: 10%
[8]
  pest or weed control at 500 g/ha: 10%
[9]
  pest or weed control at 500 g/ha: 10%

## O=S(=O)([O-])C[n+]1ccc(-c2csnn2)cc1 [Compound A54]
[1]
  pest or weed control at 500 g/ha: 20%
[2]
  pest or weed control at 500 g/ha: 0%
[4]
  pest or weed control at 500 g/ha: 10%
[5]
  pest or weed control at 500 g/ha: 20%
[6]
  pest or weed control at 500 g/ha: 20%
[7]
  pest or weed control at 500 g/ha: 20%
[8]
  pest or weed control at 500 g/ha: 0%
[9]
  pest or weed control at 500 g/ha: 0%

## O=C(O)CC[n+]1ccc(-c2ncns2)c(F)c1 [Compound A55]
[3]
  pest or weed control at 500 g/ha: 10%
[5]
  pest or weed control at 500 g/ha: 50%
[6]
  pest or weed control at 500 g/ha: 40%
[7]
  pest or weed control at 500 g/ha: 30%
[8]
  pest or weed control at 500 g/ha: 20%
[9]
  pest or weed control at 500 g/ha: 30%

## O=C(O)CC[n+]1ccc(-c2ncns2)c(Cl)c1 [Compound A56]
[3]
  pest or weed control at 500 g/ha: 100%
[5]
  pest or weed control at 500 g/ha: 60%
[6]
  pest or weed control at 500 g/ha: 30%
[7]
  pest or weed control at 500 g/ha: 30%
[8]
  pest or weed control at 500 g/ha: 30%
[9]
  pest or weed control at 500 g/ha: 10%

## CS(=O)(=O)c1c[n+](CCC(=O)O)ccc1-c1ncns1 [Compound A93, 3-[3-methylsulfonyl-4-(1,2,4-thiadiazol-5-yl)pyridin-1-ium-1-yl]propanoic acid bromide]
[1]
  pest or weed control at 500 g/ha: 30%
[2]
  pest or weed control at 500 g/ha: 40%
[3]
  pest or weed control at 500 g/ha: 30%
[5]
  pest or weed control at 500 g/ha: 60%
[6]
  pest or weed control at 500 g/ha: 30%
[7]
  pest or weed control at 500 g/ha: 30%
[8]
  pest or weed control at 500 g/ha: 30%
[9]
  pest or weed control at 500 g/ha: 10%
